Experiment [1] concerns MDA-MB-231 cells. Kind of experiment: Western blot of apoptotic proteins (Bak, cytochrome c, caspase-7, caspase-9, mTOR). The note with it: for cleavage of the initiator caspase, caspase 9 / expression of cytochrome c / caspase 7 activation: compared to vehicle; for mTOR expression: 5 or 10 µM; for expression of Bak: compared to cells incubated in the absence of lead compounds. The class given is cell-based, human. As for the experimental part: To measure the expression of Bak, cytochrome c, caspase-7, caspase-9, and mTOR, Western blotting was performed by lysing MDA-MB-231 cells using a lysis buffer (50 mM Tris–HCl, 150 mM NaCl, 1 mM EDTA, 0.5% NP-40, 1% Triton, 0.1% SDS) containing a protease inhibitor cocktail that consisted of Aprotinin, Bestatin, E-64, Leupeptin, and Pepstatin A (Sigma-Aldrich Life Science, St. Louis, MO, USA). The bicinchoninic acid (BCA) quantification assay was used to determine the protein levels in the cell extracts (G-BIOSCIENCES, St. Louis, MO, USA). The extracted proteins were loaded onto a 10–20% tris-glycine gel. After separation, the proteins were transferred from the gel onto a polyvinylidene difluoride (PVDF) membrane. The membranes were blocked using 5% milk in Tris-buffered saline Tween 20 for 30 min and incubated overnight with primary antibodies against Bak (1:1000), cytochrome C (1:1000), caspase-3 (1:1000), caspase 7 (1:1000), caspase 9 (1:1000), mTOR (1:1000), or B-actin (1:2000) in 5% BSA (bovine serum albumin) at 4 °C. The next day, membranes were washed and incubated with horseradish peroxidase-labelled (HRP) anti-rabbit secondary antibody (1:5000 dilutions). The membrane was incubated with the antibody for an additional 1 h. Subsequently, the membranes were washed and developed by Clarity Western ECL substrate (Bio-Rad; Hercules, CA, USA). Protein was detected using a ChemiDoc Imaging System (Bio-Rad). Densitometry analyses of the blots for the detected protein were quantified using the ImageJ software. Data was calculated as ratios of protein/β-actin.

The next experiment relates to BT-20. Kind of experiment: MTT cytotoxicity assay, BT-20. In kind it is cell-based. The note with it: Homo sapiens, mean ± SEM of three independent experiments in triplicate, read-out: IC50 Breast Cancer BT-20. How it is done: (§1) A panel of cancer cell lines, including breast (MDA-MB-231, BT20), brain (U251), and colon (HCT116), as well as a normal cell line (human mammary epithelial cells: HMECs), were grown as adherent monolayers in flasks with Dulbecco’s Modified Eagle Medium (DMEM), supplemented with 10% fetal bovine serum (FBS) and 1% penicillin and streptomycin in a humidified incubator with 5% CO2 at 37 °C.
(§2) The (3-(4,5-dimethylthiazol-2-yl)-2,5-diphenyltetrazolium bromide) (MTT) assay was used to determine the cytotoxicity of the 15 chrysin derivatives in the above-mentioned cell lines. Briefly, cells were harvested with 0.05% trypsin, 2.21 mM ethylenediaminetetraacetic acid (EDTA), 1× from Corning (Corning, NY, USA), and suspended at a final density of 5 × 10^3 cells/well. Cells were seeded (180 μL/well) into 96-well plates. Initially, four different concentrations of each compound were added to find the compounds with the greatest antiproliferative efficacy in the MDA-MB-231 cell line (0, 1, 10, and 100 μM). Subsequently, […] different concentrations […] of each compound were added to the remaining cell lines mentioned above. After 68 h of incubation, 20 μL of the MTT solution (4 mg/mL) were added to each well, and the plates were incubated for 4 h. This allowed viable cells to biotransform the yellow-colored MTT into dark-blue formazan crystals. Subsequently, the medium was discarded, and 150 μL of DMSO were added to each well to dissolve the formazan crystals. The absorbance was determined at 590 nm using a DTX 880 multimode detector (Beckman Coulter life sciences, IN, USA). The IC50 ± SD concentrations were calculated from three experiments performed in triplicate/duplicate. The IC50 values were calculated from the cell survival percentages obtained for each compound tested at different concentrations. Similarly, the cytotoxicity of the test compounds was compared to the normal cell line (HMEC).
(In general: Formazan colour is commonly taken as a measure of viable cells.)

In the next experiment the test system is U-251. Kind of experiment: MTT cytotoxicity assay, U-251. The class given is cell-based. The note with it: Homo sapiens, mean ± SEM of three independent experiments in triplicate, read-out: IC50 Brain Cancer U-251. How it is done:
as §1, §2

For experiment [2], the system named is MDA-MB-231 cells. Kind of experiment: MitoTracker Red / Alexa Fluor 488 annexin V flow cytometry (mitochondrial membrane potential and apoptosis). In kind it is cell-based, human. Conditions: for Q2 % of cells (population of cells undergoing apoptosis, quadrant II): 24 h, MitoTracker Red / annexin V, 0 µM control 14.30% (4g), 14.78% (4i); for mitochondrial membrane potential (in words): incubation for 24 h. How it is done:
MitoTracker Red and Alexa Fluor 488 annexin V kits for flow cytometry (Molecular Probes Inc., Invitrogen, Eugene, OR) were used to measure the mitochondrial membrane potential and apoptosis in MDA-MB-231 cells. […] The cells were then […] using 0.05% trypsin, 2.21 mM EDTA, 1×, counted, and 4 μL of 10 μM of the MitoTracker Red working solution were added to 1 mL of the harvested cells. The cells were incubated at 37 °C with 5% CO2 for 30 min. The cells were washed once with PBS and resuspended in 100 μL of the annexin binding buffer. The cell suspensions were incubated with 5 μL of Alexa Fluor 488 annexin V for 15 min. This was followed by the addition of 400 μL of the annexin-binding buffer. Finally, flow cytometry was used to detect the fluorescence of stained cells at the following excitation/emission maxima: Alexa Fluor® 488 annexin V: 499/521 nm; MitoTracker® Red: 579/599 nm with the BD Accuri™ C6 flow cytometer from BD Biosciences (Becton-Dickinson, San Jose, CA, USA) and analyzed using FCS express 5 plus De Novo software (Glendale, CA, USA).

Turning to `O=C(COc1cc(O)c2c(=O)cc(-c3ccccc3)oc2c1)N/N=C/c1ccc(O)cc1O` [Compound 4g, (E,Z)-N’-(2,4-Dihydroxybenzylidene)-2-((5-hydroxy-4-oxo-2-phenyl-4H-chromen-7-yl)oxy)acetohydrazide], the “cleavage of the initiator caspase, caspase 9” value in the experiment on MDA-MB-231 cells [1] (5 µM) was “significant cleavage”. For the same compound, the “expression of cytochrome c” value with MDA-MB-231 cells [1] (5 µM) is reported as “significant increase”. For the same compound, the mTOR expression result in the experiment with MDA-MB-231 cells [1] is “no significant change”. Moreover, the “caspase 7 activation” value in the experiment with MDA-MB-231 cells [1] (both concentrations (5 and 10 µM)) is reported as “activated caspase 7”. The “expression of Bak” value in the experiment with MDA-MB-231 cells [1] is recorded as “increase”. Moreover, the IC50 in the experiment with BT-20 was 5.32 ± 0.72 µM; in the experiment on U-251, 7.64 ± 0.11 µM. Moreover, the “Q2 % of cells (population of cells undergoing apoptosis, quadrant II)” value (“Q2 % of cells” below) in the experiment with MDA-MB-231 cells [2] (5 µM) was determined as 26.56%; in the experiment on MDA-MB-231 cells [2] (10 µM), 58.05%. In the experiment with MDA-MB-231 cells [2], the “mitochondrial membrane potential (in words)” value is “significant loss of the mitochondrial membrane potential”.
As for `O=C(COc1cc(O)c2c(=O)cc(-c3ccccc3)oc2c1)N/N=C/c1ccc(O)c(O)c1O` [Compound 4i, (E,Z)-2-((5-Hydroxy-4-oxo-2-phenyl-4H-chromen-7-yl)oxy)-N’-(2,3,4-trihydroxybenzylidene)acetohydrazide], in the experiment on MDA-MB-231 cells [1] (10 µM), the “caspase 7 activation” value is on record as “activated caspase 7”; the “cleavage of the initiator caspase, caspase 9” value is “significant cleavage”; the “expression of cytochrome c” value was “significant increase”. For the same compound, in the experiment with MDA-MB-231 cells [1], the mTOR expression result is on record as “no significant change” and the “expression of Bak” value is “increase”. In addition, the IC50 with BT-20 amounted to 10.4 ± 0.2 µM. Moreover, the concentration for half-maximal inhibition (IC50) in the experiment on U-251 turned out to be 25.4 ± 7.53 µM. In the experiment on MDA-MB-231 cells [2] (5 µM), the “Q2 % of cells” value was 32.25%. For the same compound, the “Q2 % of cells” value with MDA-MB-231 cells [2] (10 µM) amounted to 42.56%. Moreover, in the experiment on MDA-MB-231 cells [2], the “mitochondrial membrane potential (in words)” value was “significant loss of the mitochondrial membrane potential”.

Usually IC50 stands for the concentration that inhibits the measured activity by half.

These data come from publication PMC7412250, “Novel Chrysin-De-Allyl PAC-1 Hybrid Analogues as Anticancer Compounds: Design, Synthesis, and Biological Evaluation” (Molecules, 2020).
